According to patent US11578055B2, “Triazacyclododecansulfonamide (“TCD”)-based protein secretion inhibitors” (KEZAR LIFE SCIENCES, priority 2018, dated 2023):
Structures can show the parent of a compound that is named as a salt.

Legend:
[1] = In Vitro Microsome Stability Assay (monkey); assay type: in vitro ADME; conditions: monkey, 30 min, NADPH
In short: (§1)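 Test article, added from a 0.25 mM DMSO stock, was incubated with liver microsomes (20 mg/mL stock) in 0.1 M potassium phosphate at 37° C, with the reaction started by NADPH. Samples were quenched with acetonitrile containing internal standard at 0 and 30 min and analysed by LC-MS/MS. Values are % remaining at 30 min versus 0 min, using IS-normalised AUC ratios.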

[2] = tested on: multiple myeloma cell line U266B1; assay: U266 Cell Viability Assay; assay type: cell-based, human; conditions: Homo sapiens, U-266; 48 hr, U266; read-out: 48 hr U266 Viability Celltiter-Glo: Mean EC50
In short: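 U266B1 myeloma cells in RPMI 1640 with 10% FBS were treated with compound dilutions for 48 h at 37° C, 5% CO2. Viability was read as CellTiter-Glo luminescence. Data for structures drawn without stereochemistry refer to stereoisomer mixtures.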

[3] = tested on: multiple myeloma cell line NCl-H929; assay: H929 Cell Viability Assay; assay type: cell-based, human; conditions: Homo sapiens, NCI-H929, 48 h, H929, read-out: 48 hr H929 Viability Celltiter-Glo: Mean EC50
In short: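 NCI-H929 myeloma cells in RPMI 1640 with 10% FBS were treated with compound dilutions for 48 h at 37 °C, and viability was then read by CellTiter-Glo luminescence. Compounds drawn without stereochemistry were tested as stereoisomer mixtures.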

[4] = tested on: PD1 signal sequence plus 10 amino acids fused to Gaussia Luciferase (PD1-ss+10aa/Gaussia Luciferase); assay: Dox Induced PD1-ss-Gluc Assay; assay type: cell-based; conditions: 24 hr, 293FRT/TO; read-out: 24 hr Dox Inducible PD1ssGluc 293FRT/TO: Mean IC50
In short: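 Stable Flp-In 293 T-REx line expressing the fusion under tetracycline-inducible control, plated the day before assay. Compound dilutions added with doxycycline and incubated at 37 °C, 5% CO2; unspecified stereocentres mean data refer to stereoisomer mixtures.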

[5] = tested on: full length IL-2 (amino acids 1-153) fused to Gaussia Luciferase; assay: Dox Induced IL2-FL-Gluc Assay; assay type: cell-based; conditions: 24 hr, 293FRT/TO; read-out: 24 hr Dox Inducible IL2FLGluc 293FRT/TO: Mean IC50
In short: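 Flp-In 293 T-REx stable line expressing full-length IL-2 (aa 1-153) with C-terminal Gaussia luciferase fusion under doxycycline-inducible control. Cells plated the day before; compound dilutions added in DMSO/media containing doxycycline, incubated at 37° C, 5% CO2.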

[6] = tested on: full length PD1 (amino acids 1-288) fused to Firefly Luciferase; assay: Dox Induced PD1-FL-Gluc Assay; assay type: cell-based; conditions: 24 hr, 293FRT/TO; read-out: 24 hr Dox Inducible PD1FLFluc 293FRT/TO: Mean IC50
From the text: FIp-In 293 T-REx™ cells were transfected with pcDNA™5/FRT/TO plasmid inserted with cDNA encoding Firefly Luciferase fused to the 3′ end of cDNA encoding full length PD1 (amino acids 1-288). Transfected cells were selected for resistance to the selectable markers Hygromycin and Blasticidin to create a stable cell line that contained the PD1-FL/Firefly Luciferase cDNA insert whose expression was regulated under the T-REx™ system. The day before assay, cells were trypsinized and plated in 384-well tissue culture plates. The next day, compound dilutions in DMSO/media containing doxycycline were added to the wells and incubated at 37° C., 5% CO2.
For chemical structures that include one or more stereoisomers, but are illustrated without indicating stereochemistry, the assay data refers to a mixture of stereoisomers.

[7] = tested on: full length TNFα (amino acids 1-233) fused to Gaussia Luciferase; assay: Dox Induced TNFα-FL-Gluc Assay; assay type: cell-based; conditions: 24 hr, 293FRT/TO; read-out: 24 hr Dox Inducible TNFaFLGluc 293FRT/TO: Mean IC50
In short: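 Stable Flp-In 293 T-REx line expressing doxycycline-inducible full-length TNFα fused to Gaussia luciferase; cells plated the day before, then treated with compound dilutions in doxycycline-containing medium at 37° C, 5% CO2. Unspecified stereocentres mean stereoisomer mixtures were tested.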

[8] = In Vitro Microsome Stability Assay (mouse); assay type: in vitro ADME; conditions: mouse, 30 min, NADPH
In short: as §1

[9] = In Vitro Microsome Stability Assay (rat); assay type: in vitro ADME; conditions: rat, 30 min, NADPH
In short: as §1

[10] = In Vitro Microsome Stability Assay (human); assay type: in vitro ADME; conditions: human, 30 min, NADPH
In short: as §1

Row | Liver Microsome Stability-% Left after 30 min w/ NADPH (%) Monkey [1] | EC50 [2] | EC50 [3] | IC50 [4] | IC50 [5] | IC50 [6] | IC50 [7] | Liver Microsome Stability-% Left after 30 min w/ NADPH (%) Mouse [8] | Liver Microsome Stability-% Left after 30 min w/ NADPH (%) Rat [9] | Liver Microsome Stability-% Left after 30 min w/ NADPH (%) Human [10] | Structure (SMILES)
1 | 60.6% | > 25 µM | > 25 µM | 0.0774 µM | 0.248 µM | 0.258 µM | > 25 µM | 53.7% | 55.7% | 56.3% | C=C1CN(S(=O)(=O)c2ccc(N(C)C)cc2)CCCN(CC2CCCCC2)CCCN(S(=O)(=O)N2CC=C(c3ccc(Cl)cc3)CC2)C1 [A74, 4-[(5-{[4-(4-chlorophenyl)-1,2,3,6-tetrahydropyridin-1-yl]sulfonyl}-9-(cyclohexylmethyl)-3-methylidene-1,5,9-triazacyclododecan-1-yl)sulfonyl]-N,N-dimethylaniline]
2 | 0.08% | > 25 µM | > 25 µM | 0.365 µM | 0.624 µM | 0.866 µM | > 25 µM | 0.18% | 0.17% | 0.21% | Cc1ccc(S(=O)(=O)N2CCCN(CC3CCCCC3)CCCN(S(=O)(=O)c3ccc(N(C)C)cc3)CC3(CC3)C2)cc1 [A11, 4-{[9-(cyclohexylmethyl)-13-(4-methylbenzenesulfonyl)-5,9,13-triazaspiro[2.11]tetradecan-5-yl]sulfonyl}-N,N-dimethylaniline hydrochloride]
3 | 1.54% | > 25 µM | > 15.4 µM | 0.118 µM | 0.301 µM | 0.319 µM | > 21.8 µM | 1.85% | 0.94% | 6.69% | C=C1CN(S(=O)(=O)c2ccc(N(C)C)cc2)CCCN(CC2CCCCC2)CCCN(S(=O)(=O)N2CCN(c3ccccc3)CC2)C1 [A36, 4-{[9-(cyclohexylmethyl)-3-methylidene-5-[(4-phenylpiperazin-1-yl)sulfonyl]-1,5,9-triazacyclododecan-1-yl]sulfonyl}-N,N-dimethylaniline]
4 | 13.6% | > 25 µM | > 25 µM | 0.083 µM |  | 0.244 µM | > 11.9 µM | 20.9% | 30% | 24.8% | C=C1CN(S(=O)(=O)c2ccc(N(C)C)cc2)CCCN(CC2CCCCC2)CCCN(S(=O)(=O)N2CCC(c3ccccc3)CC2)C1 [A35, 4-{[9-(cyclohexylmethyl)-3-methylidene-5-[(4-phenylpiperidin-1-yl)sulfonyl]-1,5,9-triazacyclododecan-1-yl]sulfonyl}-N,N-dimethylaniline hydrochloride]
5 | 12% | > 25 µM | 2.97 µM | 0.0469 µM | 0.133 µM | 0.161 µM | 1.21 µM | 20.1% | 22.3% | 15.4% | C=C1CN(S(=O)(=O)c2ccc(N(C)C)cc2)CCCN(CC2CCCCC2)CCCN(S(=O)(=O)N2CCC[C@@H](c3ccccc3)C2)C1 [A43, 4-{[9-(cyclohexylmethyl)-3-methylidene-5-{[(3S)-3-phenylpiperidin-1-y]sulfonyl}-1,5,9-triazacyclododecan-1-yl]sulfonyl}-N,N-dimethylaniline]
6 | 19.5% | > 25 µM | > 25 µM | 0.241 µM | 0.447 µM | 0.591 µM | > 25 µM | 32.4% | 43.3% | 39.6% | CN(C)c1ccc(S(=O)(=O)N2CCCN(CC3CCCCC3)CCCN(S(=O)(=O)N3CCC(c4ccccc4)CC3)CC3(CC3)C2)cc1 [A29, 4-{[9-(cyclohexylmethyl)-13-[(4-phenylpiperidin-1-yl)sulfonyl]-5,9,13-triazaspiro[2.11]tetradecan-5-yl]sulfonyl}-N,N-dimethylaniline]
7 | 1.17% | > 25 µM | 1.22 µM | 0.0939 µM |  | 0.311 µM | 3.76 µM | 0.56% | 1.17% | 0.25% | C=C1CN(S(=O)(=O)c2ccc(C)cc2)CCCN(CC2CCCCC2)CCCN(S(=O)(=O)c2ccc(N(C)C)cc2)C1 [A4]
8 | 0.83% | > 25 µM | 5.08 µM | 0.241 µM |  | 0.638 µM | 11.4 µM | 0.09% | 0.37% | 0.25% | C=C1CN(S(=O)(=O)c2ccc(C)cc2)CCCN(CC2CCCCC2)CCCN(S(=O)(=O)c2ccc(OC)cc2)C1 [A3]
9 | 35.7% | > 25 µM | > 25 µM | > 25 µM | > 25 µM | > 25 µM | > 25 µM | 28.6% | 33.9% | 53.1% | C[C@@H]1CN(S(=O)(=O)c2ccc(N(C)C)cc2)CCCN(CC2CCCCC2)CCCN(S(=O)(=O)N2CCC(c3ccccc3)CC2)C1 [A76, 4-{[(3 R)-9-(cyclohexylmethyl)-3-methyl-5-[(4-phenylpiperidin-1-yl)sulfonyl]-1,5,9-triazacyclododecan-1-yl]sulfonyl}-N,N-dimethylaniline]
10 | 0.09% | > 25 µM | 10.1 µM | 0.345 µM |  | 0.807 µM | > 25 µM | 0.09% | 0.59% | 0.04% | C=C1CN(S(=O)(=O)c2ccc(C)cc2)CCCN(CC2CCCCC2)CCCN(S(=O)(=O)c2ccc(C)cc2)C1 [A2]
11 | 29.2% | > 25 µM | 5.63 µM |  | 0.395 µM | 0.429 µM | > 25 µM | 34.1% | 39.9% | 41.3% | C=C1CN(S(=O)(=O)c2c(F)cc(N(C)C)cc2F)CCCN(CC2CCCCC2)CCCN(S(=O)(=O)N2CCC(c3ccccc3)CC2)C1 [A86]
